Experimental data taken from ChEMBL document CHEMBL1153245, “A profile of the in vitro anti-tumor activity of imidazolium-based ionic liquids” (2010).

Columns and labels:
Assay type in all cases: functional
[1] = test system: T47D; assay: Anticancer activity against human T47D cells assessed cell growth at 10 uM after 48 hrs by sulforhodamine B assay relative to control
[2] = test system: OVCAR-4; assay: Anticancer activity against human OVCAR4 cells assessed cell growth at 10 uM after 48 hrs by sulforhodamine B assay relative to control
[3] = test system: HL-60(TB); assay: Anticancer activity against human HL-60(TB) cells assessed cell growth at 10 uM after 48 hrs by sulforhodamine B assay relative to control
[4] = test system: LOX IMVI; assay: Anticancer activity against human LOXIMVI cells assessed cell growth at 10 uM after 48 hrs by sulforhodamine B assay relative to control
[5] = test system: NCI-H522; assay: Anticancer activity against human NCI-H522 cells assessed cell growth at 10 uM after 48 hrs by sulforhodamine B assay relative to control
[6] = test system: HOP-62; assay: Anticancer activity against human HOP62 cells assessed cell growth at 10 uM after 48 hrs by sulforhodamine B assay relative to control
[7] = test system: COLO 205; assay: Anticancer activity against human COLO205 cells assessed cell growth at 10 uM after 48 hrs by sulforhodamine B assay relative to control
[8] = test system: SK-MEL-2; assay: Anticancer activity against human SK-MEL-2 cells assessed cell growth at 10 uM after 48 hrs by sulforhodamine B assay relative to control
[9] = test system: HT-29; assay: Anticancer activity against human HT-29 cells assessed cell growth at 10 uM after 48 hrs by sulforhodamine B assay relative to control
[10] = test system: HCT-116; assay: Anticancer activity against human HCT116 cells assessed cell growth at 10 uM after 48 hrs by sulforhodamine B assay relative to control
[11] = test system: MDA-MB-435; assay: Anticancer activity against human MDA-MB-435 cells assessed cell growth at 10 uM after 48 hrs by sulforhodamine B assay relative to control
[12] = test system: DU-145; assay: Anticancer activity against human DU145 cells assessed cell growth at 10 uM after 48 hrs by sulforhodamine B assay relative to control
[13] = test system: UACC-257; assay: Anticancer activity against human UACC257 cells assessed cell growth at 10 uM after 48 hrs by sulforhodamine B assay relative to control
[14] = test system: CCRF-CEM; assay: Anticancer activity against human CCRF-CEM cells assessed cell growth at 10 uM after 48 hrs by sulforhodamine B assay relative to control
[15] = test system: UO-31; assay: Anticancer activity against human UO31 cells assessed cell growth at 10 uM after 48 hrs by sulforhodamine B assay relative to control
[16] = test system: SR; assay: Anticancer activity against human SR cells assessed cell growth at 10 uM after 48 hrs by sulforhodamine B assay relative to control
[17] = test system: SF-268; assay: Anticancer activity against human SF268 cells assessed cell growth at 10 uM after 48 hrs by sulforhodamine B assay relative to control
[18] = test system: PC-3; assay: Anticancer activity against human PC3 cells assessed cell growth at 10 uM after 48 hrs by sulforhodamine B assay relative to control
[19] = test system: A498; assay: Anticancer activity against human A498 cells assessed cell growth at 10 uM after 48 hrs by sulforhodamine B assay relative to control
[20] = test system: SNB-19; assay: Anticancer activity against human SNB19 cells assessed cell growth at 10 uM after 48 hrs by sulforhodamine B assay relative to control
[21] = test system: K562; assay: Anticancer activity against human K562 cells assessed cell growth at 10 uM after 48 hrs by sulforhodamine B assay relative to control
[22] = test system: A549; assay: Anticancer activity against human A549 cells assessed cell growth at 10 uM after 48 hrs by sulforhodamine B assay relative to control
[23] = test system: BT-549; assay: Anticancer activity against human BT549 cells assessed cell growth at 10 uM after 48 hrs by sulforhodamine B assay relative to control
[24] = test system: NCI-H460; assay: Anticancer activity against human NCI-H460 cells assessed cell growth at 10 uM after 48 hrs by sulforhodamine B assay relative to control
[25] = test system: SK-MEL-28; assay: Anticancer activity against human SK-MEL-28 cells assessed cell growth at 10 uM after 48 hrs by sulforhodamine B assay relative to control
[26] = test system: SF-295; assay: Anticancer activity against human SF295 cells assessed cell growth at 10 uM after 48 hrs by sulforhodamine B assay relative to control
[27] = test system: ACHN; assay: Anticancer activity against human ACHN cells assessed cell growth at 10 uM after 48 hrs by sulforhodamine B assay relative to control
[28] = test system: OVCAR-8; assay: Anticancer activity against human OVCAR8 cells assessed cell growth at 10 uM after 48 hrs by sulforhodamine B assay relative to control
[29] = test system: HCC 2998; assay: Anticancer activity against human HCC2998 cells assessed cell growth at 10 uM after 48 hrs by sulforhodamine B assay relative to control
[30] = test system: IGROV-1; assay: Anticancer activity against human IGROV1 cells assessed cell growth at 10 uM after 48 hrs by sulforhodamine B assay relative to control
[31] = test system: HCT-15; assay: Anticancer activity against human HCT15 cells assessed cell growth at 10 uM after 48 hrs by sulforhodamine B assay relative to control
[32] = test system: KM12; assay: Anticancer activity against human KM12 cells assessed cell growth at 10 uM after 48 hrs by sulforhodamine B assay relative to control
[33] = test system: NCI/ADR-RES; assay: Anticancer activity against human NCI/ADR-RES cells assessed cell growth at 10 uM after 48 hrs by sulforhodamine B assay relative to control
[34] = test system: M14; assay: Anticancer activity against human M14 cells assessed cell growth at 10 uM after 48 hrs by sulforhodamine B assay relative to control
[35] = Anticancer activity against human RPMI8266 cells assessed cell growth at 10 uM after 48 hrs by sulforhodamine B assay relative to control
[36] = test system: NCI-H226; assay: Anticancer activity against human NCI-H226 cells assessed cell growth at 10 uM after 48 hrs by sulforhodamine B assay relative to control
[37] = test system: CAKI-1; assay: Anticancer activity against human Caki1 cells assessed cell growth at 10 uM after 48 hrs by sulforhodamine B assay relative to control
[38] = test system: OVCAR-3; assay: Anticancer activity against human OVCAR-3 cells assessed cell growth at 10 uM after 48 hrs by sulforhodamine B assay relative to control
[39] = test system: U-251; assay: Anticancer activity against human U251 cells assessed cell growth at 10 uM after 48 hrs by sulforhodamine B assay relative to control
[40] = test system: HOP-92; assay: Anticancer activity against human HOP92 cells assessed cell growth at 10 uM after 48 hrs by sulforhodamine B assay relative to control
[41] = test system: MDA-MB-468; assay: Anticancer activity against human MDA-MB-468 cells assessed cell growth at 10 uM after 48 hrs by sulforhodamine B assay relative to control
[42] = test system: SK-OV-3; assay: Anticancer activity against human SKOV3 cells assessed cell growth at 10 uM after 48 hrs by sulforhodamine B assay relative to control
[43] = test system: TK-10; assay: Anticancer activity against human TK10 cells assessed cell growth at 10 uM after 48 hrs by sulforhodamine B assay relative to control

`CCCCCCCCCCCCCCCCCC[n+]1ccn(C)c1.FC(F)(F)C(F)(F)[P-](F)(F)(F)(C(F)(F)C(F)(F)F)C(F)(F)C(F)(F)F` showed an Activity [1] of 32.25%, an Activity [2] of -18.12% and an Activity [3] of 15.34%. For the same molecule, the Activity [4] was -25.56%, the Activity [5] was -63.43% and the Activity [6] was -79.75%. The Activity [7] was 5.01%, the Activity [8] was -54.7% and the Activity [9] was -41.19%. It also gave an Activity [10] of -57.3%, an Activity [11] of -52.89% and an Activity [12] of 7.06%. For the same molecule, the Activity [13] was -53.5%, the Activity [14] was 35.34% and the Activity [15] was -55.23%. It also gave an Activity [16] of 24.53%, an Activity [17] of -47.08% and an Activity [18] of -57.75%. For the same molecule, the Activity [19] was -47.4%, the Activity [20] was -34.47% and the Activity [21] was 26.87%. It also gave an Activity [22] of -19.59%, an Activity [23] of -56.11% and an Activity [24] of -53.73%. For the same molecule, the Activity [25] was -45.82%, the Activity [26] was -26.82% and the Activity [27] was -53.6%. For the same molecule, the Activity [28] was -31.79%, the Activity [29] was -80.57% and the Activity [30] was -30.94%. The Activity [31] was -23.91%, the Activity [32] was -56.04% and the Activity [33] was -50.87%. The Activity [34] was -26.94%, the Activity [35] was 49.96% and the Activity [36] was -58.27%. For the same molecule, the Activity [37] was -71.63%, the Activity [38] was -53.86% and the Activity [39] was -39.24%. The Activity [40] was -39.5%, the Activity [41] was 5.93% and the Activity [42] was 10.45%. It also gave an Activity [43] of -60.38%.

`CCCCCCCCOS(=O)(=O)[O-].CCCCCCCC[n+]1ccn(C)c1` showed an Activity [1] of 80.27%, an Activity [2] of 60.6% and an Activity [3] of 82.07%. It also gave an Activity [4] of 68.86%, an Activity [5] of 57.44% and an Activity [6] of 90.54%. It also gave an Activity [7] of 82.4%, an Activity [8] of 83.39% and an Activity [9] of 67.62%. It also gave an Activity [10] of 55.91%, an Activity [11] of 55.5% and an Activity [12] of 96.94%. It also gave an Activity [13] of 78.7%, an Activity [14] of 97.94% and an Activity [15] of 71.08%. It also gave an Activity [16] of 82.08%, an Activity [17] of 92.2% and an Activity [18] of 94.3%. For the same molecule, the Activity [19] was 90.58%, the Activity [20] was 82.22% and the Activity [21] was 93.71%. For the same molecule, the Activity [22] was 82.78%, the Activity [23] was 67.86% and the Activity [24] was 95.98%. It also gave an Activity [25] of 112.15%, an Activity [26] of 80.68% and an Activity [27] of 67.5%. It also gave an Activity [28] of 76.03%, an Activity [29] of 69.81% and an Activity [30] of 72.84%. The Activity [31] was 107.62%, the Activity [32] was 76.23% and the Activity [33] was 94.1%. It also gave an Activity [34] of 84%, an Activity [35] of 116.11% and an Activity [36] of 74.07%. The Activity [37] was 56.81%, the Activity [38] was 81.64% and the Activity [39] was 71.96%. It also gave an Activity [40] of 107.58%, an Activity [41] of 38.15% and an Activity [42] of 82.36%. The Activity [43] was 68.07%.
